Results taken from publication PMC4579270, “Identification and Characterization of an Irreversible Inhibitor of CDK2” (Chemistry & Biology, 2015).

Legend:
Experiment in all cases: Dundee protein kinase screen
Assay type in all cases: biochemical
CK2 = CK2 (Homo sapiens, UniProt P68400); details: CK2, 1µM; read-out: %Remaining activity at 1µM NU6300
Protocol: (§1) Prior to determining its cellular activity, we carried out a screen to assess its selectivity against a panel of 131 protein kinases under conditions that would not distinguish between a reversible or irreversible mode of action. […] These 13 kinases and 29 additional kinases, selected for their known sensitivity to other inhibitors within the purine series, were then tested in a modified screening format in which the assay was repeated following a 4-hr pre-incubation (Table S3B). […] However, conformational flexibility around the active site may promote such an interaction with a residue from another part of the structure ([Martin et al., 2012]).
(§2) Table S3, Related to Figure 4. NCL-0006300 protein kinase selectivity. (A) NU6300 was tested at a single concentration of 1µM against 131 protein kinases present in a Dundee protein kinase screen (Bain et al., 2007). Values given are % activity remaining and are the average of duplicate measurements: 0-25% (red), 26-50% (yellow), 51-80% (black) and above 81% (green). The kinase domain sequences (as defined by UniProt) of […]
(§3) have a lysine residue at a position close to CDK2 Lys88 or Lys89. However, in the structure of tyrosine-protein kinase BTK (PDB ID: 3GEN) the residue equivalent to CDK2 Asp86 is Cys481 and therefore there is the potential for a covalent adduct to be formed through this side chain. Ephrin type-B receptor 3 (UniProt entry P54753) also encodes a cysteine residue (Cys717) that by sequence alignment would be predicted to be close to the CDK2 lysine pair. (B) Selected kinases were re-tested in the Dundee kinase screen against NU6300 at a single concentration of 0.5 µM both in the standard assay format and following a 4 hour pre-incubation in the presence of NU6300. Kinases which have very low activity after the 4 hour incubation so that results might not be wholly reliable are boxed in salmon. Kinases where the activity after a 4 hour pre-incubation is < 50% that in the standard assay format are highlighted in red.

p38γ MAPK = p38γ MAPK (Homo sapiens, UniProt P53778); details: read-out: %Remaining activity at 1µM NU6300
Sequence of p38γ MAPK (P53778 whole entry): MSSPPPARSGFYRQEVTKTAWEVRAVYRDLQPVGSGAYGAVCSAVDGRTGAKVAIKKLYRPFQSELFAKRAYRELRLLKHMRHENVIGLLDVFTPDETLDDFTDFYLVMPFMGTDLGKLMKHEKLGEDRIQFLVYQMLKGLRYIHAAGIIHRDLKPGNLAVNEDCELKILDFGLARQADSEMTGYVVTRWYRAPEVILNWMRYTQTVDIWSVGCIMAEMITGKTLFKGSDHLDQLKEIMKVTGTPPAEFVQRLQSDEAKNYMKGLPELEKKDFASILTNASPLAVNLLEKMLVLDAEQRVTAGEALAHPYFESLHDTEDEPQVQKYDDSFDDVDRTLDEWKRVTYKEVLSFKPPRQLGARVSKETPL
Protocol: as §1, §2, §3

ASK1 = biological target: T1, ASK1 (Homo sapiens, UniProt Q99683); details: ASK1, 1µM; read-out: %Remaining activity at 1µM NU6300
T1 sequence (Q99683 1-1374): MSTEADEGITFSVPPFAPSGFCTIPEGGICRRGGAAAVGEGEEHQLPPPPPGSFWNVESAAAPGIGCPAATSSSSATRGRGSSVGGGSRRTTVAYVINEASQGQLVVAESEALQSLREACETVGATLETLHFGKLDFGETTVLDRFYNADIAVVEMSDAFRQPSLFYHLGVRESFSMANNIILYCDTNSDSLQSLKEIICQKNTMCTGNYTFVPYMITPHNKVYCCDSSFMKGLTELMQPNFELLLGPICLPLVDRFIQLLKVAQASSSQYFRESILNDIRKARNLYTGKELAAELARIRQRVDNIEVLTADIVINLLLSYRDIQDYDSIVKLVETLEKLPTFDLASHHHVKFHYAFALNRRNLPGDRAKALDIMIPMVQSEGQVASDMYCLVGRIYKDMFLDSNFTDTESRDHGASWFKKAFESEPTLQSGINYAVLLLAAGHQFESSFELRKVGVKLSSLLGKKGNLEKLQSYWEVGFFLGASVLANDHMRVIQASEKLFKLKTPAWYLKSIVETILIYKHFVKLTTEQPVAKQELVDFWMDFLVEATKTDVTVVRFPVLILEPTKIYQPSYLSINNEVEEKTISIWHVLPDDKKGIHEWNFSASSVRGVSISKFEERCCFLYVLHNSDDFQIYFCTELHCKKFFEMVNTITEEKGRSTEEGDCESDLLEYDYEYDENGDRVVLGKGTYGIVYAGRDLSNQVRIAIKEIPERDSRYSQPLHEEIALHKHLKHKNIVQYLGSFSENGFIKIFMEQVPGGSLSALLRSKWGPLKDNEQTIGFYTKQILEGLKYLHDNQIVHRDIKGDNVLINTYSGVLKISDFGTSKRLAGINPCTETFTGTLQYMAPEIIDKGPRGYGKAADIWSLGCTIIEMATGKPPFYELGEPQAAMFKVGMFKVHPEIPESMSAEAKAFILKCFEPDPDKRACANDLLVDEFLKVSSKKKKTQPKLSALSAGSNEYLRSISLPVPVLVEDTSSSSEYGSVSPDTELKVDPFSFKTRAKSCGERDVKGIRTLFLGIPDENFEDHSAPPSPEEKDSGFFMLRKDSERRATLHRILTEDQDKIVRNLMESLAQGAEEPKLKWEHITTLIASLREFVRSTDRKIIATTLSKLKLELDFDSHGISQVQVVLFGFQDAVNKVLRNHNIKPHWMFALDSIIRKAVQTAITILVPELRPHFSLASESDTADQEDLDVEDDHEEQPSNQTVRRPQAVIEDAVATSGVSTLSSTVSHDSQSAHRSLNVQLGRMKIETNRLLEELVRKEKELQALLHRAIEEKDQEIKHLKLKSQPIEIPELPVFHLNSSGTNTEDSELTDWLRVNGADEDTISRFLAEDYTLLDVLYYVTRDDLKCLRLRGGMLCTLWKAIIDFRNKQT
Protocol: as §1, §2, §3

PRAK = PRAK (Homo sapiens, UniProt Q8IW41); details: read-out: %Remaining activity at 1µM NU6300
Sequence of PRAK (Q8IW41 whole entry): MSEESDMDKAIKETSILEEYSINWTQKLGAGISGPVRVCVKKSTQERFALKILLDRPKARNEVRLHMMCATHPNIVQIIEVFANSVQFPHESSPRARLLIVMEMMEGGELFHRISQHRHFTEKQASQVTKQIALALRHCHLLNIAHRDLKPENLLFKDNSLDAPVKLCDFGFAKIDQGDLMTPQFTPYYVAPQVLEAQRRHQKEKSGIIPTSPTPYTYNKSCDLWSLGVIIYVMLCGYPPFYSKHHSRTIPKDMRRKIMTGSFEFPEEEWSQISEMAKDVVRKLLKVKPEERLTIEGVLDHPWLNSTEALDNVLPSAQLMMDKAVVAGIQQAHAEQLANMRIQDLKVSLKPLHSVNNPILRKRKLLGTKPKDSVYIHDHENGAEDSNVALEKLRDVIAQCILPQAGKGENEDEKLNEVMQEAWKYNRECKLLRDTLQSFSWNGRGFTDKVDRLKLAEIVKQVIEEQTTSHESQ
Protocol: as §1, §2, §3

HIPK1 = HIPK1 (Homo sapiens, UniProt Q86Z02); details: HIPK1, 1µM; read-out: %Remaining activity at 1µM NU6300
Sequence of HIPK1 (Q86Z02 whole entry): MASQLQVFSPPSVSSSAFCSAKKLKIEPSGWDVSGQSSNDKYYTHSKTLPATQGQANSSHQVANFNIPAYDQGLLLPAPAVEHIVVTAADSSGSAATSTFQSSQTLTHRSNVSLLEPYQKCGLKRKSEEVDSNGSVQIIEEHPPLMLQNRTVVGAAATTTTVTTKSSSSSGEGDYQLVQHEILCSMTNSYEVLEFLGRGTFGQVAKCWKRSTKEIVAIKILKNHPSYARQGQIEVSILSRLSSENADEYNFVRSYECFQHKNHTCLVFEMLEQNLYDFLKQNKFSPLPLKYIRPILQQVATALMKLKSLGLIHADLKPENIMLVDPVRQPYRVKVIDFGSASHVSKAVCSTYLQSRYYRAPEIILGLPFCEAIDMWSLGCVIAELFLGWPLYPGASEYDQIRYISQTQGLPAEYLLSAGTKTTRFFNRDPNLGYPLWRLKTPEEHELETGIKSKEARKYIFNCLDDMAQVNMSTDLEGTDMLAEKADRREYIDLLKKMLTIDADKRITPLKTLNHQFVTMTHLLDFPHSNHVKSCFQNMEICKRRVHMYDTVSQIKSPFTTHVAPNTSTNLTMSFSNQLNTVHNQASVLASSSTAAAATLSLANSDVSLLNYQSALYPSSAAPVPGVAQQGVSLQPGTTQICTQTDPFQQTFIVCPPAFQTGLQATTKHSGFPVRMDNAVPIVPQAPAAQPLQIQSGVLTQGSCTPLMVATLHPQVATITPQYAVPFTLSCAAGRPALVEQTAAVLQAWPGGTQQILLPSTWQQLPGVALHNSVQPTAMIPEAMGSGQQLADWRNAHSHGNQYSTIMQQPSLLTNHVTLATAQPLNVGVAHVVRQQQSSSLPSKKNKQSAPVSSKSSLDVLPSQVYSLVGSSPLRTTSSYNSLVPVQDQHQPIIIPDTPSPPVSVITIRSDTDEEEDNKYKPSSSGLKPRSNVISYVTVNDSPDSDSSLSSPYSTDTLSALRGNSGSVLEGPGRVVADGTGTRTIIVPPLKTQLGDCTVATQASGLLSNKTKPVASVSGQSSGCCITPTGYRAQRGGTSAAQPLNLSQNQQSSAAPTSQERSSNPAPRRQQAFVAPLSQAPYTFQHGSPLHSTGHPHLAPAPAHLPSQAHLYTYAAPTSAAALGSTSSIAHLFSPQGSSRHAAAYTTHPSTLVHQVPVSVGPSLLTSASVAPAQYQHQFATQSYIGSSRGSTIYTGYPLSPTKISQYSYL
Protocol: as §1, §2, §3

IRAK1 = IRAK1 (Homo sapiens, UniProt P51617); details: IRAK1, 1µM; read-out: %Remaining activity at 1µM NU6300
Sequence of IRAK1 (P51617 whole entry): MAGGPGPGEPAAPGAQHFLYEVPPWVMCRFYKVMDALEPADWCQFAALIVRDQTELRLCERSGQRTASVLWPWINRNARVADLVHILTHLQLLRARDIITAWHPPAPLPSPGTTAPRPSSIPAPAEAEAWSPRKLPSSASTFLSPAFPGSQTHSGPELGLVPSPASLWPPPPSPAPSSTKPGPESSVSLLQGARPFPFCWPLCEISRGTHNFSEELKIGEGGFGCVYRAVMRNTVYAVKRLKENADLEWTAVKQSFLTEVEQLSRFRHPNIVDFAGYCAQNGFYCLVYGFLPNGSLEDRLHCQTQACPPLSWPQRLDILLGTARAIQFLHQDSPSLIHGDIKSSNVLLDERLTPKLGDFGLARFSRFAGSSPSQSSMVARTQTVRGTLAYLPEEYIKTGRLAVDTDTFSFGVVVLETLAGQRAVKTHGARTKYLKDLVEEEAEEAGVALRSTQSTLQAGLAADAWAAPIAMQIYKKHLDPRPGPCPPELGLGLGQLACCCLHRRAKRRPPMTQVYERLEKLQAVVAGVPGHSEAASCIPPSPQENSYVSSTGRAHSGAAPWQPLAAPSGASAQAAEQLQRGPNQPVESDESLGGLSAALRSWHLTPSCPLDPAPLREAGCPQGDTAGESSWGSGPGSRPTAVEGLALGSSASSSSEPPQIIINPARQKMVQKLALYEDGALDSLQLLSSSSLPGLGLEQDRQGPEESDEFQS
Protocol: as §1, §2, §3

Sequence of CK2 (P68400 whole entry): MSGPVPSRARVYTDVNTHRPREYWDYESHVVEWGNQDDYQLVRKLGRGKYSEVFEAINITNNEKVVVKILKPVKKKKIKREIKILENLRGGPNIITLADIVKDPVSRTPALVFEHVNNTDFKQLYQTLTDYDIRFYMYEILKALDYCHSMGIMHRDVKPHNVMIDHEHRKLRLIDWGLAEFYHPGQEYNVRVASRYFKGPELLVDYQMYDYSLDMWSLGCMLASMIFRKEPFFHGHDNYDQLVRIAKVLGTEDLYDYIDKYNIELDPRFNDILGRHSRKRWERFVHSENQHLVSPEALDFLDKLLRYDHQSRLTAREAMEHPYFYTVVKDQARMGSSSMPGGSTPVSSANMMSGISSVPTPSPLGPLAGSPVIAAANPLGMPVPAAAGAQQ

Structure (SMILES): C=CS(=O)(=O)c1ccc(Nc2nc(OCC3CCCCC3)c3nc[nH]c3n2)cc1 [NU6300, 6-(cyclohexylmethoxy)-N-(4-(vinylsulfonyl)phenyl)-9H-purin-2-amine]
- remaining activity at 1 µM (CK2): 91%
- remaining activity at 1 µM (p38γ MAPK): 104%
- remaining activity at 1 µM (ASK1): 49%
- remaining activity at 1 µM (PRAK): 77%
- remaining activity at 1 µM (HIPK1): 93%
- remaining activity at 1 µM (IRAK1): 37%
